The source of these data is PubChem BioAssay (NCI).

Among the test systems are PC-3 prostate; CCRF-CEM leukemia; HS 578T breast; EKVX NSCLC; OVCAR-8 ovarian; BT-549 breast; COLO 205 colon; K-562 leukemia; A549 NSCLC; U251 CNS; MALME-3M melanoma.
What all share (assay): NCI tumour cell line growth inhibition, 48 h

The structures appear in SMILES notation.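 Each compound was tested at five concentrations against cells in 96-well plates for 48 hours. TGI: total growth inhibition.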 A value given as a limit tells only on which side of the number the result lay.

Regarding `CC(=O)Nc1ncc(Sc2ccccc2C(=O)O)s1`, the TGI with PC-3 prostate, in the assay on CCRF-CEM leukemia, with HS 578T breast, in the assay on EKVX NSCLC, with OVCAR-8 ovarian and in the assay on BT-549 breast was > 100 µM in each case. The TGI with COLO 205 colon, with K-562 leukemia, in the assay with A549 NSCLC and in the assay on U251 CNS was > 100 µM each time.
Regarding `O=C(Cn1nc(Br)c(Br)c1Br)c1ccccc1`, the TGI with PC-3 prostate was > 100 µM; in the assay with CCRF-CEM leukemia it was 23 µM; with HS 578T breast, > 100 µM; with EKVX NSCLC, > 100 µM; in the assay on OVCAR-8 ovarian it was > 100 µM; in the assay with BT-549 breast, 80.4 µM. In addition, the TGI is 72.4 µM with MALME-3M melanoma; 36.9 µM in the assay with COLO 205 colon; 28.7 µM with K-562 leukemia; 89.7 µM in the assay on A549 NSCLC; > 100 µM in the assay on U251 CNS.
Turning to `CC(=O)O[C@H]1C[C@]2(C)C(CCC3O[C@@]32C)[C@@]2(CC(c3ccoc3)OC2O)[C@@H]1C` (stereo not given in full), the TGI is > 100 µM in the assay with PC-3 prostate; 88.3 µM with CCRF-CEM leukemia; > 100 µM with HS 578T breast; > 100 µM in the assay with EKVX NSCLC; > 100 µM with OVCAR-8 ovarian; > 100 µM in the assay on BT-549 breast. The TGI in the assay on COLO 205 colon, in the assay on K-562 leukemia, with A549 NSCLC and in the assay with U251 CNS was > 100 µM in each case.
As for `c1ccc(C2SCC3=Nc4ccccc4CN32)cc1` (stereo not given), the TGI in the assay with PC-3 prostate was > 100 µM; in the assay with CCRF-CEM leukemia, > 100 µM; in the assay on HS 578T breast, > 100 µM; with OVCAR-8 ovarian it was 57.3 µM; in the assay on BT-549 breast it was > 100 µM; in the assay with COLO 205 colon, > 100 µM. Moreover, the TGI with K-562 leukemia, in the assay on A549 NSCLC and with U251 CNS was > 100 µM in each case.
Take `O=C(c1cc(Cl)cc(Cl)c1)N(C(=S)OC12CC3CC(CC(C3)C1)C2)c1ccccc1`: the TGI in the assay on PC-3 prostate is > 100 µM; in the assay on CCRF-CEM leukemia it was 49.9 µM; in the assay with HS 578T breast, > 100 µM; in the assay with EKVX NSCLC, 69.1 µM; in the assay on OVCAR-8 ovarian, > 100 µM; in the assay on BT-549 breast, > 100 µM. Besides, the TGI was > 100 µM with MALME-3M melanoma, 35.4 µM in the assay with COLO 205 colon, > 100 µM in the assay on A549 NSCLC and > 100 µM in the assay with U251 CNS.
`O=P(O)(O)C(O)/C=C/c1ccccc1` (stereo not given): the TGI in the assay with PC-3 prostate, in the assay with HS 578T breast, in the assay on EKVX NSCLC, in the assay with OVCAR-8 ovarian, with BT-549 breast and in the assay with MALME-3M melanoma was > 100 µM in each case. Moreover, the TGI in the assay on COLO 205 colon, in the assay on K-562 leukemia, in the assay with A549 NSCLC and with U251 CNS was > 100 µM throughout.
With `COC(=O)C(CCC1C=CCC1)N=Cc1ccccc1` (stereo not given), the TGI in the assay with PC-3 prostate, with CCRF-CEM leukemia, in the assay on HS 578T breast, in the assay with EKVX NSCLC, with OVCAR-8 ovarian and with BT-549 breast was > 100 µM each time. The TGI in the assay with COLO 205 colon, in the assay with K-562 leukemia, in the assay with A549 NSCLC and in the assay with U251 CNS was > 100 µM each time.
As for `CC(NS(C)(=O)=O)c1ccccc1` (stereo not given), the TGI in the assay with PC-3 prostate, in the assay with CCRF-CEM leukemia, with HS 578T breast, in the assay on OVCAR-8 ovarian, in the assay with BT-549 breast and in the assay with MALME-3M melanoma was > 100 µM throughout. For the same compound, the TGI in the assay with COLO 205 colon, with K-562 leukemia, in the assay on A549 NSCLC and in the assay with U251 CNS was > 100 µM each time.
For `CC(C)(C)c1ccc(CN2CCN(C(c3ccccc3)c3ccc(Cl)cc3)CC2)cc1` (stereo not given), the TGI in the assay with PC-3 prostate, with HS 578T breast, in the assay with EKVX NSCLC, with OVCAR-8 ovarian, in the assay with BT-549 breast and in the assay with MALME-3M melanoma was > 100 µM in each case. Further, the TGI in the assay with COLO 205 colon, in the assay with K-562 leukemia, in the assay with A549 NSCLC and with U251 CNS was > 100 µM each time.
Consider `Cc1csc2nc(-c3ccc([N+](=O)[O-])cc3)c(/C=N/N=C(N)N)n12`, for which the TGI is 3.25 µM in the assay on PC-3 prostate; 4.11 µM with CCRF-CEM leukemia; 3.15 µM in the assay with HS 578T breast; 2.73 µM in the assay with EKVX NSCLC; 2.68 µM with OVCAR-8 ovarian; 0.211 µM in the assay on BT-549 breast. In addition, the TGI in the assay with MALME-3M melanoma stood at 3.61 µM; in the assay with COLO 205 colon it was 2.96 µM; with A549 NSCLC it was 3.2 µM; in the assay with U251 CNS it was 3.24 µM.
As to `CCOP(=O)(Nc1ccc(-c2ccccc2)cc1)OCC`, the TGI in the assay with PC-3 prostate, with HS 578T breast, in the assay on EKVX NSCLC, in the assay on OVCAR-8 ovarian, in the assay on BT-549 breast and in the assay with MALME-3M melanoma was > 100 µM throughout. Further, the TGI in the assay with COLO 205 colon, in the assay on K-562 leukemia, in the assay on A549 NSCLC and in the assay on U251 CNS was > 100 µM in each case.
Take `CC1CCCC2=C1C(c1ccc(Cl)cc1)n1c(s/c(=C\c3ccc(Cl)cc3)c1=O)=N2` (stereo not given): the TGI in the assay with PC-3 prostate, in the assay on CCRF-CEM leukemia, in the assay on HS 578T breast, in the assay with EKVX NSCLC, in the assay on OVCAR-8 ovarian and with BT-549 breast was > 100 µM throughout. Further, the TGI in the assay with COLO 205 colon, in the assay on K-562 leukemia, in the assay on A549 NSCLC and with U251 CNS was > 100 µM each time.
With `O=c1[nH]c2ccc(CC(=S)N3CCOCC3)cc2s1`, the TGI in the assay with PC-3 prostate, in the assay with CCRF-CEM leukemia, in the assay on HS 578T breast, in the assay with EKVX NSCLC, with OVCAR-8 ovarian and in the assay on BT-549 breast was > 100 µM throughout. For the same compound, the TGI in the assay with MALME-3M melanoma, with COLO 205 colon, in the assay with K-562 leukemia and in the assay with U251 CNS was > 100 µM in each case.
